Assay results: paper PMC10200060, “Inhibition of DAMP actions in the tumoral microenvironment using lactoferrin-glycyrrhizin conjugate for glioblastoma therapy” (Biomaterials Research, 2023)

How the values were obtained:
[1] = system: orthotopic GBM (U87MG) mice model; experiment: Nissl staining: GBM/normal brain ratio; format: in vivo, Balb/c nude mice; conditions: daily i.v. GL equivalent 50 mg kg^−1, 14 days (control 37.5 ± 2.3)
Excerpt: (§1) After two weeks, mice were sacrificed, and the brains were harvested and fixed with paraformaldehyde (4%). Then, tissue processing was automatically conducted using a Leica TP1020 semi-enclosed Benchtop Tissue Processor (Leica Biosystems, Wetzlar, Hesse, Germany), followed by embedding in paraffin blocks. Paraffin blocks were sliced into 5 μm thick slices using a Leica RM2145 Microtome (Leica Biosystems). Nissl staining was used to stain brain tissue slides with pre-warmed 0.1% Cresyl Violet Stain Solution (Abcam). TUNEL assays were conducted following the manufacturer’s instructions. For immunofluorescence staining; anti-HMGB1 antibody (Abcam), anti-Ki67 antibody (Abcam), anti-CD31 antibody (Abcam), and anti-VEGF antibody (Abcam) were used as primary antibodies, and goat anti-rabbit IgG-H&L Alexa Fluor 488 and goat anti-rabbit IgG H&L Alexa Fluor 647 were used as secondary antibodies, followed by DAPI mounting.

HMGB1 [2] = experiment: Immunofluorescence staining of HMGB1 in GBM tissue; format: in vivo, Balb/c nude mice; conditions: GBM mice, daily i.v. GL equivalent 50 mg kg^−1, 14 days (control 15.3 ± 1.7)
Excerpt: as §1

HMGB1 box B = target: HMGB1 box B; set-up: method as in PMID 17462578; conditions: previously reported; cited from earlier work
HMGB1 box A = target: HMGB1 box A; set-up: method as in PMID 17462578; conditions: previously reported; cited from earlier work
[3] = system: orthotopic GBM (U87MG) mice model; experiment: TUNEL assay of GBM tissue; format: in vivo, Balb/c nude mice; conditions: daily i.v., 14 days (control 28.5 ± 4.8)
Excerpt: as §1

HMGB1 [4] = experiment: HMGB1 ELISA of U87MG culture medium; format: cell-based, human; conditions: 50 μM GL equivalent, 48 h (control 131.8 ± 11.4)
Experimental: U87MG cells were seeded in 100 mm-cell culture dishes (2.2 × 10^6 cells per dish) and treated with GL, Lf, or Lf-GL (50 × 10^–6 M GL equivalent concentration) for 48 h. After incubating, cells were collected using a cell scrapper and were centrifuged for 3 min at 150 × g. Supernatant was collected as cell culture medium, and pellets were washed with cold PBS twice and transferred into a microcentrifuge tube. Tubes were centrifuged, and then pellets were resuspended in 500 μL 1X hypotonic buffer and incubated on ice. Then, 25 μL of NP40 was added and the mixture was agitated using a vortex mixer at the highest setting. Homogenates were centrifuged for 10 min at 842 × g at 4℃. Supernatant was collected as the cytoplasmic fraction, and pellets were resuspended in cell extraction buffer (50 μL) and were incubated for 30 min on ice with vortexing at 10 min intervals. Then, homogenates were centrifuged for 30 min at 14,000 × g at 4℃. Supernatant was collected as the nuclear fraction. The amount of HMGB1 in the samples was measured using a HMGB1 ELISA kit (Abbkine), and absorbance was measured at 450 nm in a micro-plate reader. A DNA assay (Quant-iT™ dsDNA Assay Kit, Invitrogen) was also conducted to express HMGB1 concentrations in equivalent amounts of DNA.

HMGB1 [5] = experiment: HUVEC co-cultured with U87MG: HMGB1 ELISA; format: cell-based, human; conditions: HUVEC/U87MG co-culture, 100 μM GL equivalent, 24 h (control 217.8 ± 5.9)
Experimental: To evaluate the inhibitory effect of Lf-GL on neovascularization in the tumor microenvironment in vitro, U87MG cells were seeded in the Transwell® insert chambers that were 6.5 mm in diameter and had 0.4 μm pore sizes (seeding density: 2.5 × 10^4 cells per well, Corning). HUVECs were seeded in the Transwell basal chamber (seeding density: 5.0 × 10^4 cells per well). GL, Lf, or Lf-GL (100 × 10^–6 M of GL equivalent concentration) were added to the insert chamber, and cells were incubated for 24 h. CCK-8 assay and HMGB1 ELISA were conducted at the basal chamber.

CD31 = experiment: Immunofluorescence staining of CD31 in GBM tissue; format: in vivo, Balb/c nude mice; conditions: GBM mice, daily i.v., 14 days (control MFI 14.7 ± 1.4)
Excerpt: as §1

[6] = In vivo fluorescence tracer image (brain); set-up: species or system Balb/c mice; conditions: FITC-tagged
Experimental: For the fluorescence tracer images, Balb/c mice were administered either FITC-tagged GL or FITC-tagged Lf-GL at a GL equivalent concentration of 50 mg kg^−1 body weight via tail vein injection. After 1, 10, 30, and 60 min, the experimental mice were sacrificed, and the organs were extracted. The fluorescence signals of FITC-tagged GL or FITC-tagged Lf-GL in organs were imaged using an in vivo imaging system (FOBI, CELLGENTEK, South Korea). The exposure time was fixed to 200 s for analyzing fluorescent signals from tissues. The quantified fluorescence signal of the brain at each time point was measured in terms of intensity units (IU, Intensity Min^−1 Gain^−1).
Fig. S15. Fluorescence tracer images of intravenously injected GL and Lf-GL. Balb/c mice were administered either FITC-tagged GL or FITC-tagged Lf-GL at a GL equivalent concentration of 50 mg kg^-1 body weight via tail vein injection. The fluorescence signals of FITC-tagged GL or FITC-tagged Lf-GL in organs were imaged using an in vivo imaging system (FOBI, CELLGENTEK, South Korea). The exposure time was fixed to 200 sec for analyzing fluorescent signals from tissues. The quantified fluorescence signal of brain at each time point was measured with Intensity Unit (IU, Intensity Min^-1 Gain^-1).

[7] = system: orthotopic GBM (U87MG) mice model; experiment: Survival in orthotopic GBM mouse model; format: in vivo, Balb/c nude mice; conditions: i.v. GL equivalent 50 mg kg^−1 (Lf 5 mg kg^−1), 28 days
Experimental: To establish the orthotopic GBM mice model, GBM cells (U87MG, inoculation density: 1.0 × 10^6 cells per 10 μL) were stereotactically injected into the right striatum of Balb/c nude mice. Then, mice were randomly divided into four groups (n = 5): control, GL, Lf, and Lf-GL treated group. […] After four weeks, mice were sacrificed, and organs were harvested and fixed with 4% paraformaldehyde for further analysis.

CC1(C)[C@@H](O[C@H]2O[C@H](C(=O)O)[C@@H](O)[C@H](O)[C@H]2O[C@@H]2O[C@H](C(=O)O)[C@@H](O)[C@H](O)[C@H]2O)CC[C@]2(C)[C@H]3C(=O)C=C4[C@@H]5C[C@@](C)(C(=O)O)CC[C@]5(C)CC[C@@]4(C)[C@]3(C)CC[C@@H]12 [GL, Glycyrrhizin]
GBM/normal brain ratio [1]: 26.4 ± 5.7
Mean fluorescence intensity (MFI) of HMGB1 (HMGB1 [2]): 6.2 ± 0.8
Kd (HMGB1 box B): 140 ± 3 µM
Kd (HMGB1 box A): 170 ± 3 µM
TUNEL MFI [3]: 16.3 ± 2.8
HMGB1 released into the medium of U87MG cells (HMGB1 [4]): 80.7 ± 4.5 ng/mL
HMGB1 level in medium (HMGB1 [5]): 190.7 ± 19.0 ng/mL
Decrease of MFI of CD31 (CD31): approximately 4 fold
Time up to which fluorescence signal was detected in the brain ([6]; i.v. GL equivalent 50 mg kg^−1): ≤ 10 min
Fluorescence intensity in the brain ([6]; i.v. GL equivalent 50 mg kg^−1, 10 min after injection): 7,914 I.U.
Additional days of survival versus PBS control [7]: 4 days
